“Also recorded” adds a separate entry of the source. Like-named read-outs stand apart in the source and are kept apart here.
How the values were obtained:
[1] = test system: rat peritoneal mast cells; conditions: ref Baun et al., 2012, cited from earlier work; for peritoneal mast cell degranulation (result in words): rat peritoneal mast cells
Source text: Inspired by clinical findings, we have previously characterized the degranulating effect of various PACAP-analogues on isolated rat peritoneal mast cells. Based on the expectation that degranulation is mediated through the PAC1-receptor, we found an unpredicted order of potency (Baun et al., [2012]).

VPAC1-receptor = test system: VPAC1-receptor; parameters: method as in Harmar et al., 2012; conditions: PACAP-38, PACAP-27 and VIP compared; ref Harmar et al., 2012; cited from earlier work
un-injected oocytes = assay: Two-electrode voltage clamp on un-injected Xenopus laevis oocytes (control); assay type: cell-based; conditions: for delayed long-lasting response in un-injected oocytes: 10 μM; for currents in un-injected oocytes (result in words): same concentrations as in receptor-expressing oocytes (0.1–3 μM; maxadilan up to 10 μM), data not shown
Method: (§1) Stage V and VI defolliculated Xenopus laevis oocytes were purchased from EcoCyte Bioscience (Dortmund, Germany) and kept in Kulori medium (90 mM NaCl, 4 mM KCl, 1 mM MgCl2, 1 mM CaCl2, and 5 mM Hepes, pH 7.4). Oocytes were micro-injected with 50 nl mRNA solution containing 30 ng RNA per oocyte and incubated at 19°C. Currents were measured after 2–5 days using a conventional two-electrode-voltage clamp (TEVC). The oocytes were placed in a 200 μl chamber and continuously exposed to a flow of Kulori medium with or without ligands (1 ml/min) while impaled with both a current and a voltage electrode filled with 3 M KCl and connected to an Oocyte Clamp Amplifier [Warner Instruments Corp. (OC-725 B) and a PC-interface (Digidata1440A, Molecular Devices)]. Current amplitude in absence or presence of ligands were analyzed using pClamp 10.2 software (Molecular Devices). All experiments were performed with oocyte membrane voltages constantly clamped to −70 mV and the temperature was kept between 19 and 22°C. In activation experiments, non-responding as well as low-responding (<10 nA) oocytes were excluded from the dataset. Ligands PACAP-38, PACAP-27, PACAP(6–38) were custom synthetized by Caslo (Lyngby, Denmark) while maxadilan was purchased from Bachem (Bubendorf, Switzerland).

[2] = test system: PAC1-receptor (Rattus Norvegicus Adcyap1r1 variant 5, null-splice variant); assay type: cell-based
Source text: (§2) DNA of the coding region of Rattus Norvegicus Adcyap1r1 variant 5 (NM_001270582.1) encoding the null-splice variant (short N-terminal and neither exon 14 or 15) of the PAC1-receptor (Vector: EX-Rn10199-M03) was ordered from GeneCopoeia. DNA encoding the RGD1560730 gene (XM_006229262.3, GenScript), was cloned into the pXOOM vector as previously described (Jespersen et al., [2002]). DNA was purified using Plasmid DNA Purification NucleoBond Xtra Midi-kit (Macherey-Nagel). […] Extracted plasmids were linearized down-stream the poly(A) segment using the XhoI restriction enzyme (New England Biolabs, Ipswich, MA, USA). RNA was in vitro transcribed by synthetization from the T7 RNA polymerase promoter using the mMessenger mMachine kit (Ambion) according to manufacturer’s protocol. Messenger RNA was purified using the MEGAclear kit (Ambion). Transcribed RNA integrity was assessed by agarose gel electrophoresis.
as §1
(§3) Concentration-response curves for both oocytes and dural mast cells were analyzed for overall effects of PACAP-38 and -27 by two-way analyses of variance (ANOVA) followed by Sidak’s test for multiple pairwise comparisons. Effects of PAC1-receptor ligands on mast cell degranulation or on receptor-expressing oocytes were analyzed with a one-way ANOVA followed by Tukey’s multiple comparisons test. The effect of PACAP-38 and PACAP(6–38) on MrgB3-expressing oocytes were analyzed by an unpaired two-tailed t-test. Differences between groups were considered significant when p < 0.05 and data are presented as mean with standard error of the mean (±SEM). GraphPad Prism 7 (GraphPad Prism Software, San Diego, CA, USA) was used for statistical analysis.

[3] = test system: MrgB3-receptor (RGD1560730); assay: Two-electrode voltage clamp on MrgB3-receptor-expressing Xenopus laevis oocytes; assay type: cell-based, rat; conditions: for activation of MrgB3-receptor (result in words): 1–10 μM, holding potential −70 mV
Source text: as §2, §1, §3

PAC1-receptor = conditions: presence of 21-amino acid domain in extracellular N-terminal domain (PAC1-full, short); ref Pantaloni et al., 1996; cited from earlier work
Source text: Pituitary adenylate cyclase-activating peptide-38 (PACAP-38) is a 38-amino acid neuropeptide located in both sensory and parasympathetic perivascular nerve fibers (Moller et al., [1993]; Mulder et al., [1994]). A C-terminal truncated 27-amino acid (PACAP-27) version is endogenously present as well but is less abundant (Miyata et al., [1990]; Arimura et al., [1991]; Ogi et al., [1993]). […] At present, three PACAP-receptors have been identified: PA ... || Several different splice variants of the PAC1-receptor have been identified in rats. Splice sites in the extracellular N-terminal domain and the third intracellular loop account for fine tuning of ligand affinity and signal transduction through adenylate cyclase or PLC activation (Deutsch and Sun, [1992]; Spengler et al., [1993]).

VPAC2-receptor = test system: VPAC2-receptor; parameters: method as in Harmar et al., 2012; conditions: PACAP-38, PACAP-27 and VIP compared; ref Harmar et al., 2012; cited from earlier work
[4] = test system: calcitonin gene-related peptide (CGRP) release from the trigeminal nucleus caudalis; conditions: ref Jansen-Olesen et al., 2014; cited from earlier work
Source text: Future studies will have to rule out if MrgB3-receptors are involved in PACAP- ...

rat meningeal mast cells = assay: Mast cell degranulation in hemi-skull preparations (dura mater, toluidine blue staining, microscopic count); assay type: cell-based, rat (male Sprague-Dawley); conditions: for degranulated meningeal mast cells in % of total number of mast cells: 30 s incubation, mean ± SEM; for mast cell degranulation: Figure 4A, PACAP-27 n = 6, maxadilan n = 5, mean ± SEM; for mast cell degranulation (result in words): 0.1 to 10 μM, rat meningeal mast cells
Method: Mast cell degranulation was performed as previously described (Pedersen et al., [2015]). In brief, skulls were cut mid-sagittal and the brain halves were removed, leaving the dura mater undisturbed. This was followed by immediate addition of either 350 μl 0.1, 1 or 10 μM PACAP-38 (custom synthesis by Caslo Laboratory ApS, Lyngby, Denmark) or vehicle (saline) in phosphate buffered saline (PBS). After 30 s incubation, the reactions were terminated, and the skulls were fixated in 4% paraformaldehyde in phosphate buffered saline (PBS; Glostrup Hospital Pharmacy, Denmark). The dura mater was dissected from the skull, whole mounted on slides, and mast cells were visualized by staining with 0.1% acidified toluidine blue (Sigma Aldrich, Germany). Tissues were dehydrated in graded alcohols prior to cover slip mounting. The level of mast cell degranulation was evaluated by 400× magnification (Nikon Eclipse Ni microscope) by a researcher blinded to the treatment and was counted in 10 consecutive fields along the stem part of the middle meningeal artery. Mast cells were considered degranulated if an extensive dispersion of more than 10 extruded granules were localized outside the cell or if an extensive loss of staining gave the cell a “ghostly” look.
as §3

migraine patients = conditions: ref Schytz et al., 2009, cited from earlier work
Source text: Pituitary adenylate cyclase-activating peptide-38 (PACAP-38) is a 38-amino acid neuropeptide located in both sensory and parasympathetic perivascular nerve fibers (Moller et al., [1993]; Mulder et al., [1994]). A C-terminal truncated 27-amino acid (PACAP-27) version is endogenously present as well but is less abundant (Miyata et al., [1990]; Arimura et al., [1991]; Ogi et al., [1993]). […] Degranulation of mast cells can be induced either by an allergen-IgE-dependent mechanism or via an IgE-independent mechanism. The latter mechanism can be activated by a group of molecules known as basic secretagogues.

[5] = 10.0 μM, n = 6, **** p < 0.0001 for PACAP-38 (two-way ANOVA, Sidak's test)

## Nc1ncnc2c1ncn2C1CCCO1 (stereo not drawn) [SQ22536]
[1]
  effect of inhibitor on PACAP-38-induced degranulation (result in words): ineffective

## COc1ccc2c(c1)CC[C@@H]1[C@@H]2CC[C@]2(C)[C@@H](NCCCCCCN3C(=O)C=CC3=O)CC[C@@H]12 [U-73122]
[1]
  effect of inhibitor on PACAP-38-induced degranulation (result in words): impaired

## Pituitary Adenylate Cyclase Activating Peptide-27 [PACAP-27]
VPAC1-receptor
  profile on VPAC1-receptor (result in words): equipotent
un-injected oocytes
  delayed long-lasting response in un-injected oocytes: not PACAP-27
  currents in un-injected oocytes (result in words): Currents were not observed
[2]
  activation of PAC1-receptor / relative potency (result in words): equipotent; also recorded: significant increase in membrane current; also recorded: activates the PAC1-receptor with apparently equal potencies
[3]
  activation of MrgB3-receptor (result in words): not significantly different from baseline; also recorded: no change; also recorded: not PACAP-27 and maxadilan induces currents
[1]
  peritoneal mast cell degranulation (result in words): not PACAP-27 and VIP, caused degranulation; also recorded: weak degranulating effect
PAC1-receptor
  effect of 21-amino acid N-terminal domain of PAC1 on binding (result in words): impairs PACAP-27 binding
VPAC2-receptor
  profile on VPAC2-receptor (result in words): equipotent
[4]
  release of CGRP from the trigeminal nucleus caudalis (result in words): neither VIP, PACAP-27 nor maxadilan, mediated the release
Rat meningeal mast cells; 0.1 μM, n = 5
  degranulated meningeal mast cells in % of total number of mast cells: 7.1 ± 3.2 % degranulation
Rat meningeal mast cells; 1.0 μM, n = 6
  degranulated meningeal mast cells in % of total number of mast cells: 16.9 ± 5.5 % degranulation
Rat meningeal mast cells; [5]
  degranulated meningeal mast cells in % of total number of mast cells: 12.1 ± 3.8 % degranulation
Rat meningeal mast cells; 10 μM, 30 s
  mast cell degranulation: 12 ± 4%
Rat meningeal mast cells; 30 s
  mast cell degranulation (result in words): did not induce mast cell degranulation that was significantly different from saline treatment; also recorded: unresponsive

## maxadilan
un-injected oocytes
  currents in un-injected oocytes (result in words): Currents were not observed
[2]; 0.01 to 1 μM, holding potential −70 mV
  activation of PAC1-receptor / relative potency (result in words): activates the PAC1-receptor with apparently equal potencies; also recorded: equipotent
[3]
  activation of MrgB3-receptor (result in words): does not activate MrgB3-receptors; also recorded: no change; also recorded: not PACAP-27 and maxadilan induces currents
[3]; up to 10 μM, −70 mV, Figure 4C, n = 9, mean ± SEM
  current: −0.03 ± 0 μA
[1]
  peritoneal mast cell degranulation (result in words): no effect on mast cell degranulation; also recorded: ineffective
[4]
  release of CGRP from the trigeminal nucleus caudalis (result in words): neither VIP, PACAP-27 nor maxadilan, mediated the release
Rat meningeal mast cells; 10 μM, 30 s
  mast cell degranulation: 5 ± 2%
Rat meningeal mast cells; 30 s
  mast cell degranulation (result in words): unresponsive

## pituitary adenylate cyclase activating peptide-38 [PACAP-38]
VPAC1-receptor
  profile on VPAC1-receptor (result in words): equipotent
un-injected oocytes
  delayed long-lasting response in un-injected oocytes: 15 out of 19
  currents in un-injected oocytes (result in words): Currents were not observed
[2]
  activation of PAC1-receptor / relative potency (result in words): equipotent; also recorded: significant increase in membrane current; also recorded: activates the PAC1-receptor with apparently equal potencies
[3]
  activation of MrgB3-receptor (result in words): only PACAP-38 induces a significant change in current; also recorded: rapid concentration-depended inward current; also recorded: caused a change in current; also recorded: induces currents
[1]
  peritoneal mast cell degranulation (result in words): caused degranulation; also recorded: strong degranulation effect; also recorded: almost total mast cell degranulation within the first 10–20 s after application
VPAC2-receptor
  profile on VPAC2-receptor (result in words): equipotent
[4]
  release of CGRP from the trigeminal nucleus caudalis (result in words): mediated the release
Rat meningeal mast cells; 0.1 μM, n = 5
  degranulated meningeal mast cells in % of total number of mast cells: 12.4 ± 3.8 % degranulation
Rat meningeal mast cells; 1.0 μM, n = 6
  degranulated meningeal mast cells in % of total number of mast cells: 17.9 ± 3.7 % degranulation
Rat meningeal mast cells; [5]
  degranulated meningeal mast cells in % of total number of mast cells: 48.4 ± 6.2**** % degranulation
Rat meningeal mast cells; 10 μM, 30 s, p < 0.0001
  increase in mast cell degranulation: eight-fold increase
Rat meningeal mast cells; 30 s
  mast cell degranulation (result in words): more potent mast cell degranulating agent than Pituitary Adenylate Cyclase Activating Peptide-27 (PACAP-27) in the meninges; also recorded: significant mast cell degranulation only was observed after stimulation with PACAP-38; also recorded: strong degranulation of meningeal mast cells
Migraine patients; PACAP-38: 20-min intravenous infusion
  migraine attacks / headache after infusion (result in words): provokes migraine attacks in migraine patients as well as headache in non-migraineurs
Migraine patients; infusion, terminated by antihistamine treatment
  adverse events after infusion (result in words): all participants in the clinical provocation studies experienced long-lasting flushing; also recorded: heat sensation and long-lasting flushing

— article PMC6447718, “PACAP-38 and PACAP(6–38) Degranulate Rat Meningeal Mast Cells via the Orphan MrgB3-Receptor” (Frontiers in Cellular Neuroscience, 2019)
